Experimental data reported in patent publication US20080064052A1, “Crystal of a Receptor-Ligand Complex and methods of use” (priority 2006, published 2008).
Where “and” joins values, the source holds several entries; their conditions need not be identical. Identical values can stand only once. Ends that are not written are not given here. Peptide text beside a SMILES is read from it. * marks the point of attachment. Biotin = O=C1N[C@H]2[C@H](CS[C@H]2CCCCC(=O)*)N1

T1: human EphB4 ephrin-binding domain (Homo sapiens, UniProt P54760)
T1 sequence (P54760 17-196): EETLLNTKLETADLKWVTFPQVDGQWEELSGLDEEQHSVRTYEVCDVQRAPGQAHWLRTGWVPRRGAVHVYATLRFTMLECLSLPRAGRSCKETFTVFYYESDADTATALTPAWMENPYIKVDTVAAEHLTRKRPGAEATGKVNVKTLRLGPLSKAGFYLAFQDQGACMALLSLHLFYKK

T2: mouse EphB4 ectodomain Fc fusion protein (Mus musculus, UniProt P54761)
T2 sequence (P54761 16-539 limits assumed): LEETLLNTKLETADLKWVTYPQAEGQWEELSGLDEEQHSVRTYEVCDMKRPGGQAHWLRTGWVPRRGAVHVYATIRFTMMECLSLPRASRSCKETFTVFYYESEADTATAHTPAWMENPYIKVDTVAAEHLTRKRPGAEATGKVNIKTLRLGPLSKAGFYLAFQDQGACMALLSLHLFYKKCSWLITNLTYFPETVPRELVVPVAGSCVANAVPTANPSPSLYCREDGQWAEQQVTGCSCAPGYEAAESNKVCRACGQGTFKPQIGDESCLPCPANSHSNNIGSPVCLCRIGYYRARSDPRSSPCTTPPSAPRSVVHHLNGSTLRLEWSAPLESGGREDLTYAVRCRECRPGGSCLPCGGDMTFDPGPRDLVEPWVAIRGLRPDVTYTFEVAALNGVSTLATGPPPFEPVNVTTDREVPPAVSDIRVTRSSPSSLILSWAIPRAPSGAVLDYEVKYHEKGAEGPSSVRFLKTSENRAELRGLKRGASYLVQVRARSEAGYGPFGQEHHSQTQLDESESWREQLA

T3: human EphB4 ephrin-binding domain, EphB4 (17-196) (human, UniProt P54760 17-196)
T3 sequence: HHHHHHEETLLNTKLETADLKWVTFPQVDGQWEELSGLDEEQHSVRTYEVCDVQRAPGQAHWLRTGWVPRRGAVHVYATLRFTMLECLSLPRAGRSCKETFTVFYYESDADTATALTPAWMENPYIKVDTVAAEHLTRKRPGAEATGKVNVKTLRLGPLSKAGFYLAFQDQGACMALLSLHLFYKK

T4: mouse EphB4 ectodomain Fc fusion protein (mouse EphB4-Fc-His, R&D Systems) (mouse, UniProt P54761 16-539)
T4 construct: extracellular domain; also called murine EphB4; not shown: Fc part of a bought fusion protein; His tag of the bought protein
T4 sequence (looked up): T2 sequence (P54761 16-539 limits assumed)

B1: ephrin-B2 Fc (Fc fusion, not shown: a dimerising Fc or GST; large carriers; small tags and cut ends)
chain: RSIVLEPIYWNSSNSKFLPGQGLVLYPQIGDKLDIICPKVDSKTVGQYEYYKVYMVDKDQADRCTIKKENTPLLNCARPDQDVKFTIKFQEFSPNLWGLEFQKNKDYYIISTSNGSLEGLDNQEGGVCQTRAMKILMKVGQDASSAGSARNHGPTRRPELEAGTNGRSSTTSPFVKPNPGSSTDGNSAGHSGNNLLGSEVALFA
B2: Human ephrin-B2 monomer (ligand)
chain: IVLEPIYWNSSNSKFLPGQGLVLYPQIGDKLDIICPKVDSKTVGQYEYYKVYMVDKDQADRCTIKKENTPLLNCAKPDQDIKFTIKFQEFSPNLWGLEFQKNKDYYIISTSNGSLEGLDNQEGGVCQTRAMKILMKVG

How the values were obtained:
[1] = biological target: T1, human EphB4 ephrin-binding domain; test: Isothermal titration calorimetry (ITC) binding to EphB4 (17-196); settings: 25° C., 50 mM Tris pH 7.8, 150 mM NaCl; for TΔS / ΔG / ΔH: 1 mM CaCl2
Procedure: Peptides were dissolved into the same buffer used for the dialysis of EphB4. […] ITC experiments were performed with a Microcal MCS ITC at 25° C. Following an initial injection of 2 μl, titrations were performed by making 20 13 μl injections of peptide into EphB4 in the sample cell to produce an approximate final 2:1 ratio of injectant to sample in the cell. […] Prior to loading the sample cell, EphB4 was centrifuged at 18,000 g for 5 min at 4° C. to remove aggregates and degassed for 5 minutes at room temperature. […] Dilution data were fit to a line and subtracted from the corresponding titration data.

[2] = biological target: T2, mouse EphB4 ectodomain Fc fusion protein; test: ELISA competition: inhibition of mouse ephrin-B2 alkaline phosphatase (AP) binding to immobilized mouse EphB4 ectodomain Fc; settings: murine receptor; for IC50: IC50 for inhibition of mouse ephrin-B2 AP binding to immobilized mouse EphB4 ectodomain Fc, ELISA binding assay
[3] = biological target: T3, human EphB4 ephrin-binding domain, …; test: ITC at 25 °C, peptide injected into human EphB4 (17-196)
Procedure: Isothermal titration calorimetry and ELISA experiments: EphB4and ephrin-B2 were either dialyzed or buffer exchanged into 50 mM Tris-Cl (pH 7.8 at 25° C.), 150 mM NaCl, 1 mM CaCl₂, prior to use in calorimetry experiments. Peptides were dissolved into the same buffer used for the dialysis of EphB4. The concentration of EphB4, ephrin-B2 and the peptides was determined by measuring the A₂₈₀ and using the theoretical-extinction coefficient (Gill and von Hippel, 1989). ITC experiments were performed with a Microcal MCS ITC at 25° C. Following an initial injection of 2 μl, titrations were performed by making 20 13 μl injections of peptide into EphB4 in the sample cell to produce an approximate final 2:1 ratio of injectant to sample in the cell. For most titrations the sample cell contained 15 μM EphB4 and the injection syringe contained a 200 μM solution of the peptide. Titrations with ephrin-B2 contained 13 μM EphB4 in the sample cell and 290 μM ephrin-B2 in the syringe. Prior to loading the sample cell, EphB4 was centrifuged at 18,000 g for 5 min at 4° C. to remove aggregates and degassed for 5 minutes at room temperature. Corrections for heats of dilution for the peptides and ephrin-B2 were determined by performing titrations of peptide or ephrin-B2 solutions into buffer. Dilution data were fit to a line and subtracted from the corresponding titration data. Titration data were analyzed using Origin ITC software (Version 5.0, Microcal Software Inc.) and curves were fit to a single binding site model (Wiseman et al., 1989). […] A lower limit for the binding constant was determined by performing a titration in which the sample cell contained 30 μM EphB4 and the injection syringe contained a 1.45 mM solution of the peptide, producing a final ratio of peptide to EphB4 of 10:1. The data was fit assuming a stoichiometry of 1 and at least 60% saturation of binding at the final peptide concentration (Turnbull and Daranas, 2003).

[4] = biological target: T4, mouse EphB4 ectodomain Fc fusion …; test: competition ELISA: inhibition of mouse ephrin-B2 AP binding to immobilized mouse EphB4 ectodomain Fc
Procedure: The ability of peptides to compete the binding of mouse ephrin-B2 alkaline phosphatase to immobilized mouse EphB4-Fc-His (R&D Systems) was measured by ELISA as previously described (Koolpe et al., 2005).

| Molecule | TΔS [1] | ΔG [1] | ΔH [1] | IC50 [2] | IC50 [4] | also measured |
| --- | --- | --- | --- | --- | --- | --- |
| CC[C@H](C)[C@H](NC(=O)[C@@H]1CCCN1C(=O)CNC(=O)[C@H](CC(N)=O)NC(=O)[C@@H]1CCCN1C(=O)[C@H](CO)NC(=O)[C@H](Cc1ccccc1)NC(=O)[C@H](CC(C)C)NC(=O)[C@@H](N)Cc1ccc(O)cc1)C(=O)N[C@@H](C)C(=O)N[C@@H](CCCNC(=N)N)C(=O)N[C@@H](C)C(=O)N[C@@H](Cc1c[nH]c2ccccc12)C(=O)O [YLFS-RAW] (H-YLFSPNGPIARAW-OH; N-terminus and C-terminus assumed) | -4.1 ± 0.4 kcal/mol | -9.7 ± 0.2 kcal/mol | -13.8 ± 0.5 kcal/mol | 40 nM |  |  |
| CC[C@H](C)[C@H](NC(=O)[C@@H]1CCCN1C(=O)CNC(=O)[C@H](CC(N)=O)NC(=O)[C@@H]1CCCN1C(=O)[C@H](CO)NC(=O)[C@H](Cc1ccccc1)NC(=O)[C@@H](N)CC(C)C)C(=O)N[C@@H](C)C(=O)N[C@@H](CCCNC(=N)N)C(=O)N[C@@H](C)C(=O)N[C@@H](Cc1c[nH]c2ccccc12)C(=O)O [LFSP-RAW] (H-LFSPNGPIARAW-OH; N-terminus and C-terminus assumed) | 2.1 ± 0.4 kcal/mol | -7.4 ± 0.1 kcal/mol | -5.3 ± 0.5 kcal/mol | > 10000 nM |  |  |
| CC[C@H](C)[C@H](NC(=O)[C@@H]1CCCN1C(=O)CNC(=O)[C@H](CC(N)=O)NC(=O)[C@@H]1CCCN1C(=O)[C@H](CO)NC(=O)[C@H](Cc1ccccc1)NC(=O)[C@H](CC(C)C)NC(=O)[C@H](Cc1ccc(O)cc1)NC(=O)[C@@H](N)CC(N)=O)C(=O)N[C@@H](C)C(=O)N[C@@H](CCCNC(=N)N)C(=O)N[C@@H](C)C(=O)N[C@@H](Cc1c[nH]c2ccccc12)C(=O)O [NYLF-RAW] (H-NYLFSPNGPIARAW-OH; N-terminus and C-terminus assumed) | -5.7 ± 0.1 kcal/mol | -9.8 ± 0.1 kcal/mol | -15.5 ± 0.1 kcal/mol | 40 nM |  |  |
| CC[C@H](C)[C@H](NC(=O)[C@@H]1CCCN1C(=O)CNC(=O)[C@H](CC(N)=O)NC(=O)[C@@H]1CCCN1C(=O)[C@H](CO)NC(=O)[C@H](Cc1ccccc1)NC(=O)[C@H](CC(C)C)NC(=O)[C@H](Cc1ccc(O)cc1)NC(=O)[C@H](CC(N)=O)NC(=O)[C@@H](N)[C@@H](C)O)C(=O)N[C@@H](C)C(=O)O [TNYL] |  |  | -9.6 ± 0.3 kcal/mol | ~150000 nM and 150000 nM |  | Kd ([1]; 1 mM CaCl2, read-out: Kd): ≥ 140000 nM; fold less potent than TNYL-RAW (IC50) ([2]; ratio of IC50 values): 10,000 fold |
| NYLFSPNGPIARAW [NYLF-RAW peptide (NYLFSPNGPIARAW)] |  |  |  |  |  | Kd [3]: 65 nM; TΔS [3]: -5.7 kcal/mol; ΔG [3]: -9.8 kcal/mol; ΔH [3]: -15.5 kcal/mol |
| YLFSPNGPIARAW [YLFS-RAW peptide (YLFSPNGPIARAW)] |  |  |  |  |  | Kd [3]: 80 nM; TΔS [3]: -4.1 kcal/mol; ΔG [3]: -9.7 kcal/mol; ΔH [3]: -13.8 kcal/mol |
| B1 |  |  |  |  | 9 nM |  |
| B2 |  |  |  |  | 10 nM |  |
| TNYLFSPNGPIAGSGSK(Biotin) [TNYL-biotin peptide (TNYLFSPNGPIAGSGSK-biotin)] |  |  |  |  | 50000 nM |  |
